# Assays:
# rat [1] = conditions: Sub-acute repeat dose toxicity; wistar; Oral; Feed; dose end: 21 day; group: systemic; systemic / clinical chemistry / [other] / [other] + systemic / clinical chemistry / 5' nucleotidase / 5' nucleotidase + systemic / organ …
# rat [2] = conditions: Prenatal developmental toxicity study, sprague dawley, Oral, Gavage/Intubation, dose end: 20 GD
# dog [3] = conditions: Chronic toxicity, beagle, Oral, Feed, dose end: 6 month, group: systemic
# rat [4] = conditions: Subchronic oral toxicity in rodents, Feed, dose end: 90 day, group: systemic
# mouse [5] = conditions: Subchronic oral toxicity in rodents, Feed, dose end: 90 day, group: systemic
# mouse [6] = conditions: Carcinogenicity; other; Oral; Feed; dose end: 104 week; group: systemic; systemic / pathology microscopic / liver / vacuolization
# dog [7] = conditions: Subchronic oral toxicity in nonrodent, beagle, Feed, dose end: 6 month, group: systemic, systemic / clinical chemistry / alkaline phosphatase (alp/alk) / alkaline phosphatase (alp/alk) + systemic / organ weight / liver / absolute…
# rat [8] = conditions: Prenatal developmental toxicity study, other, Oral, Gavage/Intubation, dose end: 15 GD
# rat [9] = conditions: Combined chronic toxicity/carcinogenicity, sprague dawley, Oral, Feed, dose end: 105 week, group: systemic
# rat [10] = conditions: Subchronic oral toxicity in rodents, sprague dawley, Feed, dose end: 13 week, group: systemic, systemic / in life observation / body weight / body weight + systemic / in life observation / body weight / body weight gain + systemic / in…
# rat [11] = conditions: Subchronic oral toxicity in rodents, sprague dawley, Feed, dose end: 3 month, group: systemic, systemic / in life observation / body weight / body weight + systemic / in life observation / body weight / body weight gain
# dog [12] = conditions: Subchronic oral toxicity in nonrodent, beagle, Feed, dose end: 16 week, group: systemic, systemic / in life observation / body weight / body weight
# rat [13] = conditions: Subchronic oral toxicity in rodents, sprague dawley, Feed, dose end: 13 week, group: systemic
# [14] = group: developmental, developmental / developmental malformation / bone / delayed ossification + developmental / developmental malformation / bone / supernumerary…
# [15] = group: maternal, reproductive / reproductive performance / postimplantation loss / postimplantation loss + reproductive / reproductive performance / …
# [16] = group: maternal, systemic / clinical chemistry / [other] / [other] + systemic / organ weight / liver / absolute + systemic / organ weight / liver / relative …
# [17] = systemic / clinical chemistry / alkaline phosphatase (alp/alk) / alkaline phosphatase (alp/alk) + systemic / hematology / erythrocyte (rbc) …
# [18] = systemic / organ weight / liver / absolute + systemic / organ weight / liver / relative to body weight
# [19] = systemic / organ weight / liver / absolute + systemic / organ weight / liver / relative to body weight + systemic / pathology microscopic / …
# [20] = systemic / organ weight / liver / absolute + systemic / organ weight / liver / relative to body weight + systemic / clinical chemistry / …
# [21] = group: developmental, developmental / developmental malformation / bone / absent + developmental / developmental malformation / bone / incomplete ossification + …
# [22] = group: maternal, systemic / in life observation / clinical signs / convulsions + systemic / in life observation / clinical signs / fur (altered appearance…
# [23] = systemic / pathology microscopic / liver / vacuolization
# [24] = systemic / pathology microscopic / liver / vacuolization + systemic / organ weight / liver / absolute + systemic / organ weight / liver / …
# [25] = systemic / in life observation / body weight / body weight gain + systemic / in life observation / food consumption / food efficiency + …
compound,measurement,setting,value
CCCCCCOC(=O)c1ccccc1C(=O)OCCCCCC [Dihexyl phthalate],LEL,rat [1],1000 mg/kg/day
same,LOAEL,rat [1],> 1000 mg/kg/day
same,NEL,rat [1],< 1000 mg/kg/day
same,NOAEL,rat [1],≥ 1000 mg/kg/day
same,LEL,rat [2]; [14],250 mg/kg/day
same,LOAEL,rat [2]; [14],250 mg/kg/day
same,NEL,rat [2]; [14],< 250 mg/kg/day
same,NOAEL,rat [2]; [14],< 250 mg/kg/day
same,LOAEL,rat [2]; [15],> 750 mg/kg/day
same,NOAEL,rat [2]; [15],≥ 750 mg/kg/day
same,LEL,rat [2]; [16],250 mg/kg/day
same,NEL,rat [2]; [16],< 250 mg/kg/day
COCC(=O)N(c1c(C)cccc1C)C(C)C(=O)OC (stereo not given) [Metalaxyl],LOAEL,dog [3]; systemic / clinical chemistry / alkaline phosphatase (alp/alk) / alkaline phosphatase (alp/alk),30.6 mg/kg/day
same,LEL,dog [3]; [17],30.6 mg/kg/day
same,NEL,dog [3]; [17],7.8 mg/kg/day
same,NOAEL,dog [3]; [17],7.8 mg/kg/day
same,LEL,rat [4]; [18],2.5 mg/kg/day
same,NEL,rat [4]; [18],< 2.5 mg/kg/day
same,LOAEL,rat [4]; [19],> 62.5 mg/kg/day
same,NOAEL,rat [4]; [19],≥ 62.5 mg/kg/day
same,LEL,mouse [5]; [18],188 mg/kg/day
same,NEL,mouse [5]; [18],< 188 mg/kg/day
same,LOAEL,mouse [5]; [20],> 750 mg/kg/day
same,NOAEL,mouse [5]; [20],≥ 750 mg/kg/day
same,LEL,mouse [6],129 mg/kg/day
same,LOAEL,mouse [6],129 mg/kg/day
same,NEL,mouse [6],24.9 mg/kg/day
same,NOAEL,mouse [6],24.9 mg/kg/day
same,LEL,dog [7],30.6 mg/kg/day
same,LOAEL,dog [7],30.6 mg/kg/day
same,NEL,dog [7],7.8 mg/kg/day
same,NOAEL,dog [7],7.8 mg/kg/day
same,LEL,rat [8]; [21],400 mg/kg/day
same,LOAEL,rat [8]; [21],400 mg/kg/day
same,NEL,rat [8]; [21],250 mg/kg/day
same,NOAEL,rat [8]; [21],250 mg/kg/day
same,LEL,rat [8]; [22],250 mg/kg/day
same,LOAEL,rat [8]; [22],250 mg/kg/day
same,NEL,rat [8]; [22],50 mg/kg/day
same,NOAEL,rat [8]; [22],50 mg/kg/day
same,LEL,rat [9]; [23],1.88 mg/kg/day
same,NEL,rat [9]; [23],< 1.88 mg/kg/day
same,LOAEL,rat [9]; [24],46.6 mg/kg/day
same,NOAEL,rat [9]; [24],9.43 mg/kg/day
CCc1cccc(C)c1N(C(=O)CCl)[C@@H](C)COC [S-Metolachlor],LEL,rat [10],150 mg/kg/day
same,LOAEL,rat [10],150 mg/kg/day
same,NEL,rat [10],15 mg/kg/day
same,NOAEL,rat [10],15 mg/kg/day
same,LEL,rat [11],259 mg/kg/day
same,LOAEL,rat [11],259 mg/kg/day
same,NEL,rat [11],23.4 mg/kg/day
same,NOAEL,rat [11],23.4 mg/kg/day
same,LEL,dog [12],31.1 mg/kg/day
same,LOAEL,dog [12],> 62 mg/kg/day
same,NEL,dog [12],15.1 mg/kg/day
same,NOAEL,dog [12],≥ 62 mg/kg/day
"Cn1sc2c(c1=O)CCC2 [2-Methyl-5,6-dihydro-2H-cyclopenta[d][1,2]thiazol-3(4H)-one]",LOAEL,rat [13]; systemic / in life observation / body weight / body weight gain + systemic / in life observation / food consumption / food efficiency,23.2 mg/kg/day
same,LEL,rat [13]; [25],23.2 mg/kg/day
same,NEL,rat [13]; [25],4.6 mg/kg/day
same,NOAEL,rat [13]; [25],4.6 mg/kg/day

# Reference: EPA's ToxRefDB 2
